The values that follow come from article PMC8469912, “Naproxen Based 1,3,4-Oxadiazole Derivatives as EGFR Inhibitors: Design, Synthesis, Anticancer, and Computational Studies” (Pharmaceuticals, 2021).

≈ marks a conversion by molar mass, not a printed value.

For data set [1], the system named is MCF-7 (breast cells). The data set can be described thus: Antiproliferative activity, sulphorhodamine B (SRB) assay, MCF-7. The format is cell-based. The following applies: Homo sapiens, MCF7, cytotoxicity, MCF-7 breast cancer cells, mean of three independent experiments. The method, then: (§1) The cytotoxicity of the new isolated compounds was evaluated against MCF-7 (breast cells), HepG2 (Hepatocellular) and HCT-116 (colorectal cells) human cancer cells using sulphorhodamine B assay (SRB). This assay was performed as previously published.
(§2) The antiproliferative activity of the target compounds was assessed on three cancer lines, MCF-7, HepG2 and HCT-116 cells using sulforhodamine assay. […].
On the technique in general: Sulforhodamine B stains cellular protein and so reports cell mass.

Data set [2] relates to HepG2 (Hepatocellular). Nature of the data set: Antiproliferative activity, sulphorhodamine B (SRB) assay, HepG2. The format is cell-based. The following applies: Homo sapiens, HepG2, cytotoxicity, HepG2 liver cancer cells, mean of three independent experiments. The procedure: as §1, §2
Data set [3] concerns HCT-116 (colorectal cells). The data set can be described thus: Antiproliferative activity, sulphorhodamine B (SRB) assay, HCT-116. Format: cell-based. The following applies: Homo sapiens, HCT-116, cytotoxicity, HCT-116 colorectal cancer cells, mean of three independent experiments. The procedure:
as §1, §2

Data set [4] addresses EGFR (Homo sapiens, UniProt P00533). The data set can be described thus: In vitro EGFR kinase inhibitory activity (ELISA, EGFR Erb B1 kinase kit). A general note: In an ELISA, binding on a coated surface is turned into a signal by an enzyme label.
Experimental: Briefly, solutions of kinase/peptide and ATP were prepared prior to use. […] Then, 5 mL of this prepared solution was added into 96 well plates, incubated for 1 h and determined by an ELISA Reader (Perkin Elmer, Waltham, MA, USA). Each experiment was repeated three times and IC50 represented as mean ± S.E, was calculated using Graph Pad Prism 5.
Data set [5] deals with MCF-7. The data set can be described thus: Apoptosis, acridine orange/ethidium bromide staining, MCF-7. The format is cell-based, human. The settings on record: MCF-7, AO/EtBr dual staining, 48 h, fluorescent microscope. The method, then:
(§3) AO and EtBr are DNA binding dyes. They have been used for detection of the morphological features of apoptotic and necrotic cells. The stainings were performed according the protocol as previously published.
(§4) The MCF-7, HepG2 and HCT 116 cancer cells were categorized by AO/EtBr dual staining. The different colors of the cells indicate different stages of apoptosis. […] and examined under a fluorescent microscope. Regularly stained green with normal, round, intact nuclei and cytoplasm indicates the viability of the normal cell (control).

Data set [6] deals with HepG2. The data set can be described thus: Apoptosis, acridine orange/ethidium bromide staining, HepG2. The format is cell-based, human. The following applies: HepG2, AO/EtBr dual staining, 48 h, fluorescent microscope. The procedure: as §3, §4
Data set [7] concerns HCT 116. The data set can be described thus: Apoptosis, acridine orange/ethidium bromide staining, HCT 116. The format is cell-based, human. The settings on record: HCT 116, AO/EtBr dual staining, 48 h, fluorescent microscope. The procedure:
as §3, §4

Chain of EGFR (P00533 25-1210): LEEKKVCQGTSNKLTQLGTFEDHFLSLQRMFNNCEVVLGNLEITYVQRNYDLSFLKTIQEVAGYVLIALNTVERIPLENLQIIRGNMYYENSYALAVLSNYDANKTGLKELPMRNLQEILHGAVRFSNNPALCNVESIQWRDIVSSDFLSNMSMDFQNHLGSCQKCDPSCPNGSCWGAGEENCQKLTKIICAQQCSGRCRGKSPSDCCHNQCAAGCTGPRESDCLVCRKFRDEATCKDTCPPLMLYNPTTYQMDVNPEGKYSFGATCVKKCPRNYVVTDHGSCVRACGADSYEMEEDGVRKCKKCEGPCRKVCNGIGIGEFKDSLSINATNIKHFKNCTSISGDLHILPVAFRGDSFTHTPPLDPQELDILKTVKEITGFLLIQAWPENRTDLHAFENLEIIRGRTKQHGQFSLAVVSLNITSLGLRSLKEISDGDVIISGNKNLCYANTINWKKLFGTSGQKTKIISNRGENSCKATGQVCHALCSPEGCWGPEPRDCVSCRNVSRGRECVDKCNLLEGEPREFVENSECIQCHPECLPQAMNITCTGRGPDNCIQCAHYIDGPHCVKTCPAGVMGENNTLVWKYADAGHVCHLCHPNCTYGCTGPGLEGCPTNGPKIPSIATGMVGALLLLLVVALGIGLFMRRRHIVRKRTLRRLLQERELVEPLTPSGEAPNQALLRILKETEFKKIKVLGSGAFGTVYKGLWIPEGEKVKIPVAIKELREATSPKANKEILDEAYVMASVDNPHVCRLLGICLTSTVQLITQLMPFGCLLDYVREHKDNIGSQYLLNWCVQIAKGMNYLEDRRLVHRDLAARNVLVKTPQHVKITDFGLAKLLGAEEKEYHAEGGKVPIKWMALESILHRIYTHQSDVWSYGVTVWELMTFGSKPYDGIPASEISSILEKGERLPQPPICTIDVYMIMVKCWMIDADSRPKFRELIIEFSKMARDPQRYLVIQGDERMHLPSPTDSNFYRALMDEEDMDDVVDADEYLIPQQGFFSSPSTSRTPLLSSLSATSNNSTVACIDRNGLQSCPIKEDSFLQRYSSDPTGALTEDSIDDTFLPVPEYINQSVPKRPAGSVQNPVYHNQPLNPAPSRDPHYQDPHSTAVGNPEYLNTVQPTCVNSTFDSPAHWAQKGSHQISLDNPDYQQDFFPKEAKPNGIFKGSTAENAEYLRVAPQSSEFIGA

A word on the IC50: it is the point on the concentration scale where inhibition reaches its midpoint. As usually defined, the melting point is the temperature, or range, at which the solid turns liquid. `COc1ccc2cc([C@H](C)c3nnc(SCc4cn(-c5ccc(Br)cc5)nn4)o3)ccc2c1` [Compound 14] came in with a melting point of 160 to 161 °C. In data set [1], half-maximal inhibition (IC50) required 7.5 µg/mL (≈ 14.4 µM). In addition, the IC50 in data set [2] was found to be 7.63 µg/mL (≈ 14.6 µM). In addition, the IC50 in data set [3] stood at 86.1 µg/mL (≈ 165 µM). For the same compound, the IC50 in data set [4] is 5.12 ± 0.21 µM.
In the case of `COc1ccc2cc([C@H](C)c3nnc(SCC(=O)Nc4ccc(F)cc4F)o3)ccc2c1` [Compound 20], the melting point lay in the range of 102 to 103 °C. Further, inhibition in data set [1] was half-maximal at 32.6 µg/mL (≈ 71.7 µM) (IC50). In addition, in data set [2], the midpoint of inhibition, the IC50, lay at 31.3 µg/mL (≈ 68.8 µM). In data set [3], this compound came in with an IC50 of 73.4 µg/mL (≈ 161 µM).
Consider `COc1ccc2cc([C@H](C)c3nnc(SCC(=O)Nc4ccc(F)cc4)o3)ccc2c1` [Compound 19], for which the melting point was 220 to 221 °C.
`COc1ccc2cc([C@H](C)c3nnc(SCC(=O)Nc4cccc(Br)c4)o3)ccc2c1` [Compound 22] came in with a melting point of 129 to 130 °C. The compound further returned a concentration for half-maximal inhibition (IC50) in data set [1] of over 100 µg/mL. The compound further registered an IC50 in data set [2] of over 100 µg/mL.
On to `COc1ccc2cc([C@H](C)c3nnc(SCC(=O)N4CCOCC4)o3)ccc2c1` [Compound 26], for which the IC50 was found to be 22.3 µg/mL (≈ 53.9 µM) in data set [1], 23.6 µg/mL (≈ 57.2 µM) in data set [2] and 11.1 µg/mL (≈ 26.8 µM) in data set [3].
Take `COc1ccc2cc([C@H](C)c3nnc(SCc4cn(-c5ccc(Cl)cc5Cl)nn4)o3)ccc2c1` [Compound 12]: the melting point was in the range of 102 to 103 °C. For the same compound, the IC50 in data set [1] came out at 45.7 µg/mL (≈ 89.2 µM). In addition, the IC50 in data set [2] was determined as 26.4 µg/mL (≈ 51.5 µM). The compound further registered an IC50 in data set [3] of 28.1 µg/mL (≈ 54.9 µM).
In the case of `COc1ccc2cc([C@H](C)c3nnc(SCc4cn(-c5ccc(F)cc5)nn4)o3)ccc2c1` [Compound 8], the melting point was in the range of 99 to 100 °C. Moreover, the IC50 in data set [1] amounted to 7.38 µg/mL (≈ 16 µM). The compound also had an IC50 in data set [2] of 25.5 µg/mL (≈ 55.2 µM). The same compound registered an IC50 in data set [3] of 15.7 µg/mL (≈ 33.9 µM). For the same compound, in data set [4], it took 7.31 ± 0.25 µM to reach half-maximal inhibition (IC50).
Turning to `COc1ccc2cc([C@H](C)c3nnc(SCc4cn(-c5cccc(Br)c5)nn4)o3)ccc2c1` [Compound 13], the IC50 in data set [1] was determined as 15.8 µg/mL (≈ 30.3 µM); in data set [2] it was 7.07 µg/mL (≈ 13.5 µM); in data set [3], 29.3 µg/mL (≈ 56 µM); in data set [4], 3.42 ± 0.11 µM.
On to `COc1ccc2cc([C@H](C)c3nnc(SCc4cn(-c5ccc(F)cc5F)nn4)o3)ccc2c1` [Compound 9], for which the IC50 was 6.47 µg/mL (≈ 13.5 µM) in data set [1], 4.52 µg/mL (≈ 9.43 µM) in data set [2], 7.46 µg/mL (≈ 15.6 µM) in data set [3] and 0.71 ± 0.17 µM in data set [4]. For the same compound, the “Early apoptosis (cell death)” value in data set [5], in data set [6] and in data set [7] was “significant rate of cell death in early apoptosis” each time. The Necrosis entry in data set [5], in data set [6] and in data set [7] was “does not cause death of the necrosis pathway” in each case.
Regarding `COc1ccc2cc([C@H](C)c3nnc(SCC(=O)Nc4ccccc4C(=O)O)o3)ccc2c1` [Compound 25], the melting point lay within 130 to 131 °C. In data set [1], this compound came in with a concentration for half-maximal inhibition (IC50) of 29.8 µg/mL (≈ 64.3 µM). The IC50 in data set [2] was 28 µg/mL (≈ 60.5 µM). Moreover, the IC50 in data set [3] was 29.2 µg/mL (≈ 63 µM).
In the case of `COc1ccc2cc([C@H](C)c3nnc(SCc4cn(-c5ccccc5O)nn4)o3)ccc2c1` [Compound 15, 2-(4-((5-((S)-1-(2-methoxynaphthalen-6-yl)ethyl)-1,3,4-oxadiazol-2-ylthio)methyl)-1H-1,2,3-triazol-1-yl)phenol], the IC50 in data set [1] came out at 2.13 µg/mL (≈ 4.64 µM); in data set [2], 1.63 µg/mL (≈ 3.55 µM); in data set [3], 29.1 µg/mL (≈ 63.3 µM); in data set [4], 0.41 ± 0.12 µM. For the same compound, the “Early apoptosis (cell death)” value in data set [6] and in data set [7] was “percentage of cell death decreased” in each case. Moreover, the Late apoptosis result in data set [7] is on record as “induces more late apoptosis”. In data set [7], the Necrosis entry is on record as “high percentage of necrosis”.
As for `COc1cccc2c1C(=O)c1c(O)c3c(c(O)c1C2=O)C[C@@](O)(C(=O)CO)C[C@@H]3O[C@H]1C[C@H](N)[C@H](O)[C@H](C)O1` [Doxorubicin, reference compound], the IC50 in data set [1] was 1.41 µg/mL (≈ 2.59 µM); in data set [2] it was 1.62 µg/mL (≈ 2.98 µM); in data set [3], 2.11 µg/mL (≈ 3.88 µM).
Consider `COc1ccc2cc([C@H](C)c3nnc(SCC(=O)Nc4ccccc4C)o3)ccc2c1` [Compound 24], for which the IC50 in data set [1] came out at 8.15 µg/mL (≈ 18.8 µM); in data set [2], 4.88 µg/mL (≈ 11.3 µM); in data set [3] it was 29.3 µg/mL (≈ 67.7 µM); in data set [4], 1.08 ± 0.31 µM.
On to `COc1ccc2cc([C@H](C)c3nnc(SCc4cn(-c5cccc(C(=O)O)c5)nn4)o3)ccc2c1` [Compound 16], for which the half-inhibitory concentration (IC50) was determined as 10.4 µg/mL (≈ 21.4 µM) in data set [1], 10.7 µg/mL (≈ 21.9 µM) in data set [2], 8.36 µg/mL (≈ 17.1 µM) in data set [3] and 2.27 ± 0.17 µM in data set [4]. Further, the Late apoptosis entry in data set [5] and in data set [6] was “observed at a high rate” throughout. Also, the Necrosis result in data set [5] and in data set [6] was “high percentage of necrosis” each time.
As to `COc1ccc2cc([C@H](C)c3nnc(SCc4cn(-c5ccccc5Cl)nn4)o3)ccc2c1` [Compound 10], the IC50 in data set [1] came out at 5.05 µg/mL (≈ 10.6 µM); in data set [2], 3.53 µg/mL (≈ 7.39 µM); in data set [3], 33.9 µg/mL (≈ 70.9 µM); in data set [4] it was 0.67 ± 0.33 µM. Moreover, the “Early apoptosis (cell death)” value in data set [5], in data set [6] and in data set [7] was “significant rate of cell death in early apoptosis” in each case.
Regarding `COc1ccc2cc([C@H](C)c3nnc(SCC(=O)Nc4cccc(Cl)c4)o3)ccc2c1` [Compound 21], the IC50 came out at 25.9 µg/mL (≈ 57.1 µM) in data set [1], 7 µg/mL (≈ 15.4 µM) in data set [2], 1.24 µg/mL (≈ 2.73 µM) in data set [3] and 0.82 ± 0.28 µM in data set [4].
On to `COc1ccc2cc([C@H](C)c3nnc(SCc4cn(-c5cccc(Cl)c5)nn4)o3)ccc2c1` [Compound 11], for which the IC50 was found to be 60.5 µg/mL (≈ 126 µM) in data set [1], 37.9 µg/mL (≈ 79.3 µM) in data set [2] and 83.9 µg/mL (≈ 176 µM) in data set [3].
Regarding `COc1ccc2cc([C@H](C)c3nnc(SCC(=O)Nc4ccc(Br)cc4)o3)ccc2c1` [Compound 23], the melting point was in the range of 148 to 149 °C. Further, in data set [1], the IC50 came to 25.6 µg/mL (≈ 51.3 µM). This compound also yielded an IC50 in data set [2] of 15 µg/mL (≈ 30 µM). In data set [3], this compound returned an IC50 of 35.1 µg/mL (≈ 70.5 µM).
